In brackets after ≈: the same amount, converted by molar mass. Like-named read-outs stand apart in the source and are kept apart here.
How the values were obtained:
MtbCoaBC = MtbCoaBC (Mycobacterium tuberculosis, UniProt P9WNZ1); assay: biochemical; format: biochemical; conditions: for Activity R1 / Activity R3: slope of absorbance at 360 nm vs time (s); for activity at 0.0625 µM / activity at 0.25 µM / activity at 0.5 µM / activity at 1 µM / activity at 2 µM: relative to average DMSO CT
M. tuberculosis H37Rv = assay: MIC determination in different media; format: cell-based; conditions: Mycobacterium tuberculosis

MtbCoaBC, sequence (P9WNZ1 whole entry): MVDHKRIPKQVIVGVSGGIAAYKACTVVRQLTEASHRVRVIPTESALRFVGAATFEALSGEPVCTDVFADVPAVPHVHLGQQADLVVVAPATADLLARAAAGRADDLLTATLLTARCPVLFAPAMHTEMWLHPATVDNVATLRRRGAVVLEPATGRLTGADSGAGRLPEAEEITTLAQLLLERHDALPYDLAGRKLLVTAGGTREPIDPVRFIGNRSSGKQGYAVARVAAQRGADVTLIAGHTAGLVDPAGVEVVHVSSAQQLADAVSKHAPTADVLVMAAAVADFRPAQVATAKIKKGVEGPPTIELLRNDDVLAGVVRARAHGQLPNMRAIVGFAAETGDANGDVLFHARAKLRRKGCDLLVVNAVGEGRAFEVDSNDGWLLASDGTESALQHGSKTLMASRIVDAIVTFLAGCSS

## O=c1cc(-c2ccc(O)cc2)oc2cc(O)c(O)c(O)c12 [2c]
MtbCoaBC; 0.03125 uM 2c, replicate R1
  Activity R1: 0.0001739
MtbCoaBC; 0.03125 uM 2c, replicate R3
  Activity R3: 0.000177
MtbCoaBC; 0.0625 uM 2c, replicate R1, read-out: Inhibition % R1
  inhibition at 0.0625 µM: 8.57%
MtbCoaBC; 0.0625 uM 2c, replicate R1, read-out: Activity % R1
  activity at 0.0625 µM: 91.4%
MtbCoaBC; 0.0625 uM 2c, replicate R1
  Activity R1: 0.0001646
MtbCoaBC; 0.0625 uM 2c, replicate R2, read-out: Inhibition % R2
  inhibition at 0.0625 µM: 5.71%
MtbCoaBC; 0.0625 uM 2c, replicate R2, read-out: Activity % R2
  activity at 0.0625 µM: 94.3%
MtbCoaBC; 0.0625 uM 2c, replicate R3, read-out: Inhibition % R3
  inhibition at 0.0625 µM: 10.2%
MtbCoaBC; 0.0625 uM 2c, replicate R3, read-out: Activity % R3
  activity at 0.0625 µM: 89.8%
MtbCoaBC; 0.0625 uM 2c, replicate R3
  Activity R3: 0.0001617
MtbCoaBC; 0.25 uM 2c, replicate R1, read-out: Inhibition % R1
  inhibition at 0.25 µM: 34%
MtbCoaBC; 0.25 uM 2c, replicate R1, read-out: Activity % R1
  activity at 0.25 µM: 66%
MtbCoaBC; 0.25 uM 2c, replicate R1
  Activity R1: 0.0001189
MtbCoaBC; 0.25 uM 2c, replicate R2, read-out: Inhibition % R2
  inhibition at 0.25 µM: 32.6%
MtbCoaBC; 0.25 uM 2c, replicate R2, read-out: Activity % R2
  activity at 0.25 µM: 67.4%
MtbCoaBC; 0.25 uM 2c, replicate R3, read-out: Inhibition % R3
  inhibition at 0.25 µM: 28.9%
MtbCoaBC; 0.25 uM 2c, replicate R3, read-out: Activity % R3
  activity at 0.25 µM: 71.1%
MtbCoaBC; 0.25 uM 2c, replicate R3
  Activity R3: 0.0001279
MtbCoaBC; 0.5 uM 2c, replicate R1, read-out: Inhibition % R1
  inhibition at 0.5 µM: 56.9%
MtbCoaBC; 0.5 uM 2c, replicate R1, read-out: Activity % R1
  activity at 0.5 µM: 43.1%
MtbCoaBC; 0.5 uM 2c, replicate R1
  Activity R1: 0.000077692
MtbCoaBC; 0.5 uM 2c, replicate R2, read-out: Inhibition % R2
  inhibition at 0.5 µM: 60.3%
MtbCoaBC; 0.5 uM 2c, replicate R2, read-out: Activity % R2
  activity at 0.5 µM: 39.7%
MtbCoaBC; 0.5 uM 2c, replicate R3, read-out: Inhibition % R3
  inhibition at 0.5 µM: 53.5%
MtbCoaBC; 0.5 uM 2c, replicate R3, read-out: Activity % R3
  activity at 0.5 µM: 46.5%
MtbCoaBC; 0.5 uM 2c, replicate R3
  Activity R3: 0.000083810
MtbCoaBC; 1 uM 2c, replicate R1, read-out: Inhibition % R1
  inhibition at 1 µM: 77.6%
MtbCoaBC; 1 uM 2c, replicate R1, read-out: Activity % R1
  activity at 1 µM: 22.4%
MtbCoaBC; 1 uM 2c, replicate R1
  Activity R1: 0.000040344
MtbCoaBC; 1 uM 2c, replicate R2, read-out: Inhibition % R2
  inhibition at 1 µM: 82.6%
MtbCoaBC; 1 uM 2c, replicate R2, read-out: Activity % R2
  activity at 1 µM: 17.4%
MtbCoaBC; 1 uM 2c, replicate R3, read-out: Inhibition % R3
  inhibition at 1 µM: 72.1%
MtbCoaBC; 1 uM 2c, replicate R3, read-out: Activity % R3
  activity at 1 µM: 27.9%
MtbCoaBC; 1 uM 2c, replicate R3
  Activity R3: 0.000050204
MtbCoaBC; 2 uM 2c, replicate R1, read-out: Inhibition % R1
  inhibition at 2 µM: 91.9%
MtbCoaBC; 2 uM 2c, replicate R1, read-out: Activity % R1
  activity at 2 µM: 8.07%
MtbCoaBC; 2 uM 2c, replicate R1
  Activity R1: 0.000014525
MtbCoaBC; 2 uM 2c, replicate R2, read-out: Inhibition % R2
  inhibition at 2 µM: 95%
MtbCoaBC; 2 uM 2c, replicate R2, read-out: Activity % R2
  activity at 2 µM: 5.02%
MtbCoaBC; 2 uM 2c, replicate R3, read-out: Inhibition % R3
  inhibition at 2 µM: 84.9%
MtbCoaBC; 2 uM 2c, replicate R3, read-out: Activity % R3
  activity at 2 µM: 15.1%
MtbCoaBC; 2 uM 2c, replicate R3
  Activity R3: 0.000027204
MtbCoaBC; read-out: Activity % R1
  activity at 0.03125 µM: 96.6%
MtbCoaBC; read-out: Activity % R2
  activity at 0.03125 µM: 96.7%
MtbCoaBC; read-out: Activity % R3
  activity at 0.03125 µM: 98.3%
MtbCoaBC; read-out: IC50 EnzChek MtbCoaBC
  IC50: 0.41 ± 0.03 µM
MtbCoaBC; read-out: Inhibition % R1
  inhibition at 0.03125 µM: 3.4%
MtbCoaBC; read-out: Inhibition % R2
  inhibition at 0.03125 µM: 3.27%
MtbCoaBC; read-out: Inhibition % R3
  inhibition at 0.03125 µM: 1.68%
M. tuberculosis H37Rv; read-out: Minimum inhibitory concentration (MIC), 7H9/ADC/Glycerol
  MIC: > 250 µM
M. tuberculosis H37Rv; read-out: Minimum inhibitory concentration (MIC), 7H9/Cholesterol/Tyloxapol
  MIC: > 250 µM
M. tuberculosis H37Rv; read-out: Minimum inhibitory concentration (MIC), GAST/Fe
  MIC: 125 µM (≈ 35.8 µg/mL)

Source: publication PMC7794376 (Nature Communications, 2021)
